Laboratory results: patent US7595313B2, “Nitric oxide donating diuretic compounds, compositions and methods of use” (NicOx, S.A., priority 2005, dated 2009)

Experiments:
[1] = tested on: isolated rat aorta precontracted with phenylephrine; test: In vitro relaxant effect in rat aorta
Method: The ability of Example 46b to relax isolated rat aorta precontracted with phenylephrine (1 μM) was studied. Example 46b was an efficacious relaxant agent in the rat aorta with an EC50 value of ˜7 μM. The vasorelaxant response elicited by Example 46b was abolished in the presence of ODQ, a potent and selective inhibitor of nitric oxide (NO)-sensitive guanylyl cyclase.

Male Wistar rats = test: Determination of the diuresis (urine volume over 6 hours after oral dosing); type: in vivo, rat; conditions: male Wistar rats, 6 hours, mean ± SEM, n=6 or 7; for Urine collected in 6 hours (mL) (3 mg/kg): p.o. 3 mg/kg in 0.5% Methocel
Procedure, shortened: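 Male Wistar rats (180-200 g) in metabolic cages, fasted 18 h, water withdrawn 90 min before dosing. Compounds in 0.5% Methocel given p.o. at 30 or 3 mg/kg; urine volume collected over 6 h. Mean ±SEM, n=6 or 7.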

Dahl salt sensitive rats = test: Blood pressure determination under in vivo conditions in the Dahl salt sensitive rat; conditions: Dahl salt sensitive rats on high salt (8%) diet, gavage twice a day, 30 mg/kg HCT equivalent, telemetry, FIG. 1
Method: (§1) The effect of subchronic administration of Example 1c and hydrochlorothiazide (HCT) on blood pressure was assessed in telemeterized male Dahl salt sensitive rats (5-6 weeks old; 125-150 g) fed a high salt (8%) diet for 4 weeks. Compounds were administered twice a day for 7 eight days via gavage at 30 mg/kg HCT equivalent in a 0.5% methylcellulose vehicle. Blood pressure was continuously monitored by telemetry and reported as a change in mean arterial blood pressure (MABP) over a 24 h period.

[2] = tested on: Spontaneously Hypertensive rats (SHR); test: Blood pressure determination under in vivo conditions in the Spontaneously Hypertensive rat; conditions: gavage twice a day, 30 mg/kg HCT equivalent, telemetry, FIG. 2
Method: as §1, with “17b” for “1c”, “Spontaneously Hypertensive” for “Dahl salt sensitive”, “(SHR; 9-10” for “(5-6”, “250-300 g).” for “125-150 g) fed a high salt (8%) diet for 4 weeks.”

Row | EC50 ([1]; Rattus norvegicus, aortic rings precontracted with phenylephrine (1 μM), relaxation as % of maximum by papaverine) [µM] | melting point [°C] | Compound | vasorelaxant response in the presence of ODQ ([1]; ODQ, inhibitor of NO-sensitive guanylyl cyclase, rat aorta precontracted with phenylephrine (1 μM)) | Urine collected in 6 hours (mL) (3 mg/kg) (Male Wistar rats) | reductions in blood pressure (mean arterial blood pressure) during the treatment period (Dahl salt sensitive rats) | Urine collected in 6 hours (mL) (30 mg/kg) (Male Wistar rats; p.o. 30 mg/kg in 0.5% Methocel) | reductions in blood pressure (mean arterial blood pressure) during the treatment period, larger than with HCT [2]
1 | ~7 | 120 to 123 | NS(=O)(=O)c1cc2c(cc1Cl)NCN(CCCCCO[N+](=O)[O-])S2(=O)=O [Example 46b, 2H-1,2,4-Benzothiadiazine-7-sulfonamide, 6-chloro-3,4-dihydro-2-[5-(nitrooxy)pentyl]-, 1,1-dioxide] | abolished | 7.3 ± 0.7 |  |  | 
2 |  | 158 to 161 | NS(=O)(=O)c1cc2c(cc1Cl)NC(CCCCCO[N+](=O)[O-])NS2(=O)=O (stereo not shown) [Example 1c, 2H-1,2,4-Benzothiadiazine-7-sulfonamide, 6-chloro-3,4-dihydro-3-[5-(nitrooxy)pentyl]-, 1,1-dioxide] |  | 6.6 ± 0.4 | approximately 5 mm Hg | 7.6 ± 0.5 | 
3 |  | 171 to 179 | NS(=O)(=O)c1cc2c(cc1Cl)NC(CCCCO[N+](=O)[O-])NS2(=O)=O (stereo not shown) [Example 17b, 2H-1,2,4-Benzothiadiazine-7-sulfonamide, 6-chloro-3,4-dihydro-3-[4-(nitrooxy)butyl]-, 1,1-dioxide] |  |  |  |  | 5-6 mm Hg
